Measured values from patent US11980620B2, “Compounds and methods for treatment of Diamond Blackfan anemia” (THE CHILDREN'S MEDICAL CENTER CORPORATION, priority 2017, dated 2024).

Key:
[1] = system: CD34-5F or CB progenitors; test: Output of mature RBCs at end of stage III of erythroid culture; format: cell-based, human
Protocol: (§1) (FIG. 12A) Erythroid differentiation of control and DBA CD34-5F cells treated with DMSO vehicle or SMER28 (10 μM) during the initial CD34^+ progenitor phase (day 0-4 of differentiation), or stage I of erythroid culture (day 4-9 of differentiation). Percent of erythroid cells after stage I of differentiation is indicated in top left for each condition, and quantitated in (FIG. 12B). Data are shown as mean f s.e.m. of 4 independent experiments, with 2 control and 4 DBA iPSCs. (FIG. 12C) Same as (FIG. 12A) for CB CD34+ cells transduced with shRPS19 hairpins. GFP^+ RPS19^sh and GFP^− control cells were quantitated separately. […] (FIG. 12D) RBC pellets at the end of stage III initiated with equal numbers of CD34-5F or CB progenitors. SMER28 was added at […]. (FIG. 12E) May-Grunwald-Giemsa stain of erythroid cells from CB CD34^+ at end of stage III. Arrows indicate enucleated RBCs, which are quantitated by flow cytometry. (FIG. 12F) Quantitation of the enucleation efficiency (left) of GLYA^+ cells. Data in FIGS. 12E-12F represents 3 independent experiments. For all panels, *p<0.05, **p<0.01.
Erythroblasts proliferate rapidly to give rise to terminally differentiated RBCs. […]

DBA CD34-5F cells = test: Erythroid differentiation (CD71+GlyA+) of CD34-5F cells from DBA iPSCs; format: cell-based, human
Protocol: (FIG. 8A) The distribution of 1440 compounds by Z-score in a proliferation-based screen of the Sigma LOPAC chemical library. DBA CD34-5F cells were plated in erythroid-promoting conditions in 384-well format. Erythroid proliferation was measured in the presence of 5 μM of each compound, and converted into Z-scores. The screen was carried out with 3 RPS19 DBA and 2 normal iPSC lines. (FIG. 88) Dose-dependent effect of SMER28 (in μM) on erythroid differentiation, shown as the absolute number of erythroid cells in each drug-treated condition normalized to vehicle (DMSO) control. Erythroid cells were analyzed on day 9 of differentiation using markers CD71 and GlyA. Dose curve was performed with DBA (n=5) and control (n=3) iPSCs. Non-linear regression curve was plotted to calculate EC50 values. (FIGS. 8C and 8D) Dose-dependent effect of SMER28 (in μM) on erythroid differentiation of CB CD34^+ RPS19^+ cells. (FIG. 8C) Absolute number of erythroid cells (analyzed on day 9) in each drug-treated condition normalized to vehicle (DMSO) control (4 independent experiments). Non-linear regression curve was plotted to calculate EC50 values. (FIG. 8D) Representative flow plots of control (shLUC) and RPS19th cells treated with DMSO or increasing doses of SMER28.
as §1
Erythroid differentiation. Differentiation was performed essentially as described (Lee et al., 2015). CD34 expansion phase (4 days): To initiate differentiation CD34-5F cells were cultured in progenitor media without Dox. Stage I (5 days): Media were changed to: IMDM+1% BSA (Gibco), 20% FBS (Stem Cell Technologies), 1 mM L-glutamine, penicillin/streptomycin, 500 μg/ml h-transferrin (Sigma), 10 μg/ml human insulin (CellSciences), 1 μM β-estradiol, 1 μM Dex, 6U Epo (CellSciences), 100 μg/ml SCF, and 5 μg/ml IL-3. Cells were seeded at a density of <1×10^5 cells/ml in 24-well plates. Stage 11 (4 days). Media were changed to: IMDM+1% BSA, 20% FBS, 1 mM L-glutamine, penicillin/streptomycin, 500 μg/ml h-transferrin, 10 μg/ml human insulin, 6U Epo, and 50 μg/ml SCF. Cells were seeded at a density of <2×10^5 cells/ml in 24-well plates. Stage III (10 days) Media were changed to: IMDM+1% BSA, 20% FBS, 1 mM L-glutamine, penicillin/streptomycin, 500 μg/ml h-transferrin, 10 μg/ml human insulin, and 2U Epo. Cells were seeded at a density of <5×10^5 cells/ml in 24-well plates.
Drug treatments. […]

Compound: C=CCNc1ncnc2ccc(Br)cc12 [SMER28, 6-Bromo-N-2-propenyl-4-quinazolinam]
- output of RBCs from erythroblasts ([1]; treatment of CD34+ progenitors only): comparable to vehicle controls
- output of iPSC- and CB-derived mature RBCs ([1]; treatment of erythroblasts during stages I-III): enhanced
- output of GlyA+ cells (DBA CD34-5F cells; 10 μM, treated only during initial expansion phase (day 0-4), DBA progenitors): increased output
- CD71+GlyA- pre-erythroblasts (DBA CD34-5F cells; 10 μM, treatment during stage I (day 4-9)): expanded
- number of GlyA+ cells (DBA CD34-5F cells; 10 μM, treatment of erythroblasts during stage I (day 4-9)): did not significantly increase
- effect on number of erythroid cells normalized to vehicle (DBA CD34-5F cells; DBA iPSCs): 9.8 fold
- EC50 (DBA CD34-5F cells; Homo sapiens, iPSC, 216 h, RPS19+/- and RPL5 DBA iPSCs, day 9, normalized to DMSO, 95% confidence interval 0.63 to 2.37 μM, read-out: EC50, absolute number of CD71+GlyA+ erythroid cells): 1500 nM
